Experiments:
Nodal protein [1] = assay: Western blot of Nodal protein (ProNodal) in acute lymphoblastic leukemia cell line REH; format: cell-based; details: REH cells, 72 hr treatment
Description: Treatment of the cells for 72 hr with CVM-1125 reduced Nodal protein expression by 38%, while under the same treatment regimen the drug Ara-c reduced Nodal protein expression by 51%, Ws65 reduced Nodal protein by 90%, a combination of CVM-1125 plus WS65 reduced Nodal protein by 75% and Ara-c plus WS65 reduced Nodal protein by 69%.

Nodal protein [2] = assay: Western blot of Nodal protein expression in SK-MEL28 melanoma cells; format: cell-based, human; details: 72 hours treatment
Experimental: (§1) Human metastatic melanoma cell lines C8161, SK-MEL28 and A375SM-L1 and melanocytes were treated with anti-Nodal or anti-ABCA1 antibodies followed by secondary fluorescent antibodies. (A) Cells were viewed using a Zeiss Axioskop 2 microscope and photomicrographs taken comparing immunofluorescence staining of the melanoma cells versus melanocytes (negative control) and cells treated with secondary antibody only (antibody control; magnification 63×). All three aggressive melanoma cell lines express both Nodal and ABCA1 proteins. (B) Furthermore, whole cell protein lysates were prepared from the C8161, SK-MEL28 and A375SM-L1 cells and Western blot analysis verified the expression of both Nodal and ABCA1 proteins at their appropriate molecular weight equivalence. β-Actin protein was used to determine the equal loading of total protein per sample per lane on the Western blot.
(§2) (A) After 72 hr treatment with WS65, an anti-Nodal inhibitory antibody, there is a 94% reduction in Nodal protein expression and 55% reduction in the ABCA1 protein expression. […] Similar treatment with WS65 results in a 55% decrease in Nodal protein expression and 38% decrease in ABCA1 protein expression while treatment with both CVM-1125 and WS65 for 72 hr appears to synergistically reduce the expression of Nodal protein by 81% and ABCA1 protein by 99%.

ABCA1 protein = assay: Western blot of ABCA1 protein expression in SK-MEL28 melanoma cells; format: cell-based, human; details: 72 hours treatment
Experimental: as §1, §2

Nodal = Nodal in experimental TNBC models after doxorubicin; details: three experimental TNBC models expressing high levels of Nodal

Structure (SMILES)	reduced Nodal protein expression (Nodal protein [1]) [%]	decrease in Nodal protein expression (Nodal protein [2]) [%]	decrease in ABCA1 protein expression (ABCA1 protein) [%]	effect on the Nodal target (Nodal)
Nc1ccn([C@@H]2O[C@H](CO)[C@@H](O)[C@@H]2O)c(=O)n1 [Ara-c, reference compound]	51	–	–	–
COc1ccc2[nH]c(-c3cccc(F)c3)cc(=O)c2c1O [CVM-1125]	38	19	14	–
COc1cccc2c1C(=O)c1c(O)c3c(c(O)c1C2=O)C[C@@](O)(C(=O)CO)C[C@@H]3O[C@H]1C[C@H](N)[C@H](O)[C@H](C)O1 [doxorubicin]	–	–	–	did not effectively diminish

— patent US20200239561A1, “NODAL REGULATION OF CANCER DRUG RESISTANCE GENE” (TaiRx Inc., priority 2019, published 2020)
